Assay results: patent US20180369186A1, “METHOD FOR MODULATING AUTOPHAGY AND APPLICATIONS THEREOF” (JAWAHARLAL NEHRU CENTRE FOR ADVANCED SCIENTIFIC RESEARCH, priority 2015, published 2018)

Assays:
[1] = test system: Salmonella typhimurium SL1344; test: Burden assay: intracellular Salmonella CFU in U1752 and HeLa cells; type: cell-based
Experimental: U1752 cell line and HeLa cell line are infected with Salmonella typhimurium SL1344, and grown overnight in micro-aerophilic condition, at an MOI of 400 for one hour. The cells are treated with media containing Gentamycin at the concentration of 100 μg/ml for 2 hours to kill the extracellular bacteria. The cells are then treated with compounds and incubated for ?hours to 4 hours. At the end, the cells are lysed using lysis buffer (0.1% SDS, 1% Triton X-100, 1× PBS) and the intercellular Salmonella is plated and the CFU is counted. The CFU of Salmonella in the Acacetin treated cells is reduced by almost 2 fold compared to that of the untreated cells. Statistical analysis of the results is done using Graphpad prism—two tailed T test (FIG. 12)

[2] = test system: Salmonella typhimurium SL1344; test: Growth curve of Salmonella typhimurium SL1344; type: cell-based; details: Luria Broth, 10 hours
Experimental: A single colony of Salmonella typhimurium WT strain SL1344 grown overnight at 37° C. is diluted in Luria Broth media to get an O.D of 0.2. The diluted culture is used for treatments with Acacetin and Acacetin with gentamycin (100 μg/ml). The growth curve of the culture is obtained by measuring the absorbance at 600 nm using varioskan Flash Multiplate Spectrophotometer at 300 rpm and O.D taken at every 30 minutes interval for 10 hours is plotted using GraphPad Prism.

[3] = test system: Pot1-GFP (peroxisomes); test: Pot1-GFP pexophagy assay; type: cell-based, S. cerevisiae; details: starvation medium; vs untreated cells
Experimental: Pot1-GFP positive strains are allowed to grow till the A600 reached 0.8-1 in YPD. Peroxisome biogenesis is induced by growing these cells in oleate medium (0.1% oleate, 0.5% Tween-40, 0.25% yeast extract, 0.5% peptone, and 5 mM phosphate buffer) for 12hours. Cells are harvested, washed twice to remove traces of oleate and transferred to starvation medium without nitrogen, at inoculum density A600 3, to induce pexophagy. Cells are collected at various time intervals after pexophagy induction and processed by TCA method.
Pot1-GFP positive strains are allowed to grow in yeast extract peptone dextrose (YPD) (2% dextrose, 2% peptone and 1% yeast extract) till the Absorbance at 600 nm reaches 0.6-0.8. Peroxisome biogenesis is induced by growing these cells in YPG medium (1% yeast extract, 2% peptone, 3% glycerol) for 12 hours.
Cells are harvested, washed twice to remove traces of oleate and transferred to starvation medium with and without Acacetin, at. inoculum density Absorbance at 600 nm 3/ml, to induce pexophagy. Cells are collected at various time intervals after pexophagy induction and processed by TCA precipitation.

[4] = test system: mcherry Salmonella typhimurium; test: Co-localization of GFP-LC3 / p62 with mcherry Salmonella in HeLa cells; type: cell-based, human
Experimental: HeLa cells are transfected with GFP-LC3 using lipofectamine 3000. After 24 hours, cells are infected with Salmonella typhimurium WT strain SL1344 with an MOI of 400 for 15 minutes followed by gentamycin treatment at the concentration of 100 μg/ml for 10 minutes to kill the extracellular bacteria.
The cells are treated with and without Acacetin and incubated for different time points (1, 2, 4 and 6 hours) at 37° C. Quantitation of LC3 co-localization with Salmonella typhimurium SL1344 is done using ImageJ-Cell counter option (FIG. 14), to check whether with compound (Acacetin) treatment more autophagy machinery is recruited towards the bacteria.

[5] = test system: mcherry-Salmonella typhimurium SL1344; test: Live cell microscopy of Salmonella replication in HeLa cells; type: cell-based; details: GFP-LC3 transfected HeLa; vs untreated samples
Experimental: GFP-LC3 transfected HeLa cells is infected with mcherry-Salmonella typhimurium SL1344 for 15 minutes (MOI-400) and is treated with gentamycin for 10 minutes. The cells are then washed with 1× PBS and changed to either only media (a) and media containing Acacetin (b) and imaged by FV10i-olympus confocal live cell imaging microscope, using 60× water immersion lens, with confocality aperature set to 1.0. Images are taken at an interval of 15 minutes. (c) The intensity of the Red channel denoting the mcherry tagged S. typhimuriumis measured using image J—Stacks T function (intensity of red channel signifies the replication of the S. typhimurium over time). The replication of Salmonella in Acacetin treated samples is restricted as compared to that of untreated samples (FIG. 15)

[6] = test system: HeLa cells (autophagosomes and autolysosomes); test: Tandem RFP-GFP-LC3B (traffic light) assay in HeLa cells; type: cell-based, human; details: ptf-LC3 transfected HeLa; 2 hours
Experimental: Transfection is done on a 60 mm dish with HeLa cells at 60-70% confluency. Cells were transfected with tandem RFP-GFP-MAP1LC3B construct (Addgene plasmid #21074) using 5 μl of Lipofectamine 2000 (11668-019, Invitrogen) and 2.5 μg of DNA (2:1 ratio) diluted in 100 μl of OPTI-MEM (31985-070, Invitrogen) separately. 72 hours after transfection cells are either left untreated or treatment with various concentrations of Bay11-7082 ZPCK is done for 2 hours. Starvation is induced by treating cells with Earle's balanced salt solution (EBBS). After treatment, cells are fixed in 4% paraformaldehyde and permeabilized using 0.25% Triton X-100, The coverslip is mounted with […] antifade reagent (H-1000, Vector laboratories). Imaging for HeLa cells is carried out using Delta vision microscope (Olympus 60×/1.4, Plan ApoN, excitation and emission filter Cy5, FITC and TRITC, polychroic Quad).
For tandem RFP-EGFP-LC3 assay, sub-confluent cells are seeded in 60 mm dishes, transfected with ptf LC3 construct and allowed to express for 24 h. Later, cells are trypsinized, reseeded (10^5 cells) and allowed to attach on cover slips in a 12 well plate.
For mammalian cell microscopy, after 2 h of treatment, coverslips are fixed using 4% paraformaldehyde (PFA) (Sigma) and permeabilized using Triton X-100 (0.2%, HiMedia). Coverslips are mounted using antifade, Vectashield (Vector laboratories). For antibody staining, coverslips are blocked in 5% BSA for 1 h, incubated in primary antibody overnight and subsequent probing with fluorescent conjugated antibody. Coverslips are mounted using antifade, Vectashield (Vector laboratories).
Images are acquired using DeltaVisionElitewidefield microscope (API, GE) with following filters: DAPI (390/18 and 435/48), FITC (490/20 and 529/38), TRITC (542/27 and 594/45) and Cy5 (632/22 and 676/34). Images are processed using DV SoftWoRX software. Autophagosome (yellow) and autolysosome (red) are counted using Cell Counter plug-in in ImageJ software (NIH) and graphically represented as fold difference versus untreated (FIG. 3E).
Sub-confluent HeLa and/or SH-SY5Y cells are seeded into 60 mm cell culture dishes, then transfected with ptf LC3 construct and/or siRNA and allowed to express for 48 h. Cells are trypsinized, seeded again on poly-D-lysine coated cover slips in a 12 or 24 well plates and allowed to attach. After appropriate treatments, the coverslips containing cells are processed for imaging. For immunofluorescent antibody staining, the cover slips are incubated in primary antibody at 4° C. for overnight followed by secondary antibody incubation at room temperature.
For imaging the mammalian cells, after appropriate treatments, coverslips containing cells are fixed using 4% paraformaldehyde (PFA) (Sigma) and then permeabilized using Triton X-100 (0.2%, HiMedia). On slide, coverslips are mounted using antifade, Vectashield mounting medium (Vector laboratories). For antibody staining, coverslips are blocked using 5% BSA for 1 h at room temperature, then incubated with primary antibody at 4° C., overnight and then subsequently probed with corresponding fluorescent dye conjugated secondary antibody.

COc1ccc(-c2cc(=O)c3c(O)cc(O)cc3o2)cc1 [Acacetin, 5,7-dihydroxy-2-(4-methoxyphenyl)chromen-4-one]
functionality in Atg5 KO HeLa cell line ([1]; Atg5 KO HeLa): non-functionality | reduction of CFU of intracellular Salmonella vs untreated ([1]; U1752 and HeLa cell lines, MOI 400): ~2 fold | anti-microbial activity against Salmonella typhimurium SL1344 [2]: does not have any anti-microbial activity | accumulation of free GFP over time (pexophagy) [3]: enhanced accumulation of free GFP | temporal recruitment of LC3 to mcherry Salmonella typhimurium [4]: increases temporal recruitment of LC3 | temporal recruitment of p62 to mcherry Salmonella typhimurium [4]: increased temporal recruitment of p62 | replication of Salmonella (red channel intensity) [5]: restricted | number of autolysosomes (red dots) [6]: increase in the number of autolysosomes
